Where a chain is given by its changes, count along the chain named. Read-outs that look alike come from different tables or passages of the source. Each block holds one molecule with its values, some of them ahead of it.
Key:
Reporter Alone = assay: Ligand binding affinities on MR constructs (Table 1), Reporter Alone; details: read-out: IC50 binding affinity, Reporter Alone
Experimental: (§1) As used herein, the terms “weakly binding ligand” and “weak ligand” are used interchangeably and mean a ligand that binds a receptor with low affinity. The binding strength of a ligand to a receptor can be experimentally measured using any of several procedures, as is generally known in the art. In some embodiments of the presently disclosed subject matter, ligand binding is measured using a competitive binding assay in which a ligand of interest competes with a labeled ligand for binding to a receptor. […] This quantitative measurement can be expressed as an IC50 value. Therefore, the greater the IC50 value of a ligand, the lower the binding affinity the ligand has for the receptor.
(§2) Cortisol has a hydroxyl attached to C11, where cortisone has a ketone.

Wild type MR = biological target: T1, Wild type MR (Homo sapiens, UniProt P08235); assay: Ligand binding affinities on MR constructs (Table 1), wild type MR
T1 sequence (P08235 1-984): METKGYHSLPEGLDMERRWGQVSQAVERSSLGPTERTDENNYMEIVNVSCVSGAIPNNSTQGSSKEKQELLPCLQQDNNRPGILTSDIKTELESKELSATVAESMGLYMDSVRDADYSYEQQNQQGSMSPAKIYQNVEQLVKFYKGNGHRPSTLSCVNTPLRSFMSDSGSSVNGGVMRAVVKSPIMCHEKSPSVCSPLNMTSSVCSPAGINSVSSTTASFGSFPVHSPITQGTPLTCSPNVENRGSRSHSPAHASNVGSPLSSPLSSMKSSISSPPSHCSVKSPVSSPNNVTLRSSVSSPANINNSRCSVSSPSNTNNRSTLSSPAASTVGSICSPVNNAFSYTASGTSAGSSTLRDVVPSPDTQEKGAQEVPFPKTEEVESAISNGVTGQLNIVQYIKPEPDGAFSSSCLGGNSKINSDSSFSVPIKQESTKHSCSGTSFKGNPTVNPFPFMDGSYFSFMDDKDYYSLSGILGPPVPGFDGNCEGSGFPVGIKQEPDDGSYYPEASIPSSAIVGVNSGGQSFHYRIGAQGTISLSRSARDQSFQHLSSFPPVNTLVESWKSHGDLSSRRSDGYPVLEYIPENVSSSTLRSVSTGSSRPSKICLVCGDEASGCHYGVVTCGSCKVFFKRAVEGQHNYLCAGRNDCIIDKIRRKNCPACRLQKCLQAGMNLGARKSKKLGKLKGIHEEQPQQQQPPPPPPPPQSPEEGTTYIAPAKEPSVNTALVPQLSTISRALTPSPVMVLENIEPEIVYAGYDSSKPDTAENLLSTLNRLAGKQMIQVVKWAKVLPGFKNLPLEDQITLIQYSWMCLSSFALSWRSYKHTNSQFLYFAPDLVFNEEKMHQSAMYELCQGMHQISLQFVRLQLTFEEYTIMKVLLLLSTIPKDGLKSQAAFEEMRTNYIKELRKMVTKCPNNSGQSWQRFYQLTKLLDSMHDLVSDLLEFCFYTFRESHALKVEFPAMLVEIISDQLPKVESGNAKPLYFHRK
Experimental: as §1, §2

MR S810L = biological target: T2, MR S810L (Homo sapiens, UniProt P08235, S810L); assay: Ligand binding affinities on MR constructs (Table 1), MR S810L; details: read-out: IC50 binding affinity, MR S810L
T2 sequence (P08235 1-984 S810L): T1 sequence (P08235 1-984) with S810L
Experimental: as §1, §2

MR = biological target: T3, MR (Homo sapiens, UniProt P08235); details: Quinkler & Stewart, 2003; cited from earlier work
T3 sequence (P08235 1-984): T1 sequence (P08235 1-984)

[1] = biological target: the molecule itself; assay: X-ray crystal structure of native MR LBD with deoxycorticosterone (crystal contact)

Molecule: CC(=O)[C@H]1CC[C@H]2[C@@H]3CCC4=CC(=O)CC[C@]4(C)[C@H]3CC[C@]12C [Progesterone, progesterone]
IC50 (Reporter Alone; in uM): > 10 µM

Molecule: CC(=O)S[C@@H]1CC2=CC(=O)CC[C@]2(C)[C@H]2CC[C@@]3(C)[C@@H](CC[C@@]34CCC(=O)O4)[C@H]12 [Spironolactone, spironolactone]
IC50 (Reporter Alone; cells printed in nM): 0.0036 µM

B1: Native (wild type) MR LBD (amino acids 712-984) (receptor)
chain: APAKEPSVNTALVPQLSTISRALTPSPVMVLENIEPEIVYAGYDSSKPDTAENLLSTLNRLAGKQMIQVVKWAKVLPGFKNLPLEDQITLIQYSWMCLSSFALSWRSYKHTNSQFLYFAPDLVFNEEKMHQSAMYELCQGMHQISLQFVRLQLTFEEYTIMKVLLLLSTIPKDGLKSQAAFEEMRTNYIKELRKMVTKCPNNSGQSWQRFYQLTKLLDSMHDLVSDLLEFCFYTFRESHALKVEFPAMLVEIISDQLPKVESGNAKPLYFHRK
notes: Crystallized with deoxycorticosterone; the final model holds residues 727-908 and 914-984; also called native MR; WT MR
binding result [1]: binds

Second part, led by results:

IC50 (Reporter Alone; in uM): > 10 µM
Molecule: C[C@]12CCC(=O)C=C1CC[C@@H]1[C@@H]2[C@@H](O)C[C@]2(C=O)[C@@H](C(=O)CO)CC[C@@H]12 [Aldosterone, aldosterone]

IC50 (Reporter Alone; cells printed in nM): 0.785 µM | IC50 (Wild type MR; Wild type MR, cells printed in nM, read-out: IC50 binding affinity, Wild type MR): 21 nM | IC50 (MR S810L): 20 nM
Molecule: C[C@]12CCC(=O)C=C1CC[C@@H]1[C@@H]2[C@@H](O)C[C@@]2(C)[C@H]1CC[C@]2(O)C(=O)CO [Cortisol, cortisol]
binding affinity for MR in words (MR): low nM binder

IC50 (Reporter Alone; in uM): > 10 µM | IC50 (Wild type MR; Wild type MR, in uM, read-out: IC50 binding affinity, Wild type MR): > 10000 nM | fold difference in IC50s between cortisone and cortisol (Wild type MR; wild type MR, transactivation assays): > 700 fold | IC50 (Wild type MR; wild-type MR, read-out: IC50 binding affinity, wild-type MR): > 10000 nM | IC50 (MR S810L): 20 nM
Molecule: C[C@]12CCC(=O)C=C1CC[C@@H]1[C@@H]2C(=O)C[C@@]2(C)[C@H]1CC[C@]2(O)C(=O)CO [Cortisone, cortisone]
binding affinity for MR in words (MR): micromolar binder

Reference: patent publication US20070219348A1, “Mutations in the mineralocorticoid receptor ligand binding domain polypeptide that permit structural determination of low affinity ligand complexes and screening methods employing same” (priority 2006, published 2007)
